Key:
[1] = system: UBE2T; test: Binding to UBE2T by differential scanning fluorimetry, ligand-observed NMR, native mass spectrometry; conditions: native mass spectrometry (unpublished data)
[2] = system: T1, UBE2D1; test: Gel-based ubiquitylation assay (UBE2D1/GST-FANCLRING), ubiquitylated UBE2D1 species; assay type: biochemical; conditions: E2 = UBE2D1, E3 = GST-FANCLRING; 30 min at 37 °C
T1 construct: His6 (N); made in house; host or cells: E. coli Rosetta (DE3)
Procedure: Figure 2 Gel-based ubiquitylation assays with confirmed HTRF hits. […] Western blots (WB) probed for GST or biotin as labeled. Reactions contained 20 nM His6-UBE1, 50 nM E2, 250 nM GST-E3, 500 nM biotinylated ubiquitin: (a) E2 = UBE2T, E3 = GST-FANCLRING, 30 min of reaction at 37 °C; (b) E2 = UBE2D1, E3 = GST-FANCLRING, 30 min of reaction at 37 °C; and (c) E2 = UBE2D1, E3 = GST-RNF8, 10 min of reaction at 37 °C.
In order to explore the selectivity of CU1, CU2, CU9, CU10, and CU12, we conducted a counter-screen against other E2 and E3 combinations. Since members of the UBE2D family of E2s are known to ubiquitylate multiple substrates in vitro,[13] a ubiquitylation assay featuring UBE2D1 and GST-FANCLRING was performed. With UBE2D1, multiple ubiquitylated GST-FANCLRING species could be observed (Figure 2b).
Purified protein was concentrated using a Vivaspin-6 concentrator with a 10 kDa MW cut-off (Vivascience) and flash-frozen in small aliquots for storage at […]
Cy5 labelling of ubiquitin. […]
Homogeneous Time-Resolved Fluorescence (HTRF) Assay. […]
(v/v) DMSO. […] Signal was measured at λEx 340 nm and λEm 665 nm and 620 nm using a PHERAstar FS plate reader
(BMG Labtech). A ratio was calculated as [λEm(665)/λEm(620)] × 104 for each well and this was used to determine the percent inhibition for test compounds. […]

Compound	binding to UBE2T [1]	formation of ubiquitylated UBE2D1 species [2]
CCN1CCN(c2cc(C)nc3nc(CN4CCCCC4C)nn23)CC1 (centres unmarked) [CU2]	did not observe binding	
NC(=O)[C@@H]1CCCN1C(=O)c1cc(-n2cccc2)ccc1Cl [CU12]		prevented the formation of any ubiquitylated UBE2D1 species

Source: publication PMC6804243, “Small-Molecule Inhibition of UBE2T/FANCL-Mediated Ubiquitylation in the Fanconi Anemia Pathway” (ACS Chemical Biology, 2019)
